From BindingDB's records for doi:10.1016/s0196-9781(98)00133-8 (Synaptic Pharmaceutical, 1998)
Non-standard residues stand in square brackets, D forms with d. Residues, ends and D or L forms follow the SMILES beside them.

Columns and labels:
Galanin receptor type 2 = target: T1, Galanin receptor type 2 (Homo sapiens, UniProt O43603)
T1 sequence (O43603 whole entry): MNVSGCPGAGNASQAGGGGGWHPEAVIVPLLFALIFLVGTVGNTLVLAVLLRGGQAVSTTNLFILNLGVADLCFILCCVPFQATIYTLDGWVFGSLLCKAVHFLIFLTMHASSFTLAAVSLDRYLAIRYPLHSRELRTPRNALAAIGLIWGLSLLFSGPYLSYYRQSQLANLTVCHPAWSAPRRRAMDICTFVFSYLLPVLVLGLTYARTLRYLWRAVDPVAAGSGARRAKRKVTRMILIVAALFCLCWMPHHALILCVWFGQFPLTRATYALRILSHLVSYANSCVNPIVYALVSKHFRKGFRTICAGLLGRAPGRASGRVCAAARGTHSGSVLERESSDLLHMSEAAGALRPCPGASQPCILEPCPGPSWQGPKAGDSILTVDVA

Galanin receptor type 3 = target: T2, Galanin receptor type 3 (Homo sapiens, UniProt O60755)
T2 sequence (O60755 whole entry): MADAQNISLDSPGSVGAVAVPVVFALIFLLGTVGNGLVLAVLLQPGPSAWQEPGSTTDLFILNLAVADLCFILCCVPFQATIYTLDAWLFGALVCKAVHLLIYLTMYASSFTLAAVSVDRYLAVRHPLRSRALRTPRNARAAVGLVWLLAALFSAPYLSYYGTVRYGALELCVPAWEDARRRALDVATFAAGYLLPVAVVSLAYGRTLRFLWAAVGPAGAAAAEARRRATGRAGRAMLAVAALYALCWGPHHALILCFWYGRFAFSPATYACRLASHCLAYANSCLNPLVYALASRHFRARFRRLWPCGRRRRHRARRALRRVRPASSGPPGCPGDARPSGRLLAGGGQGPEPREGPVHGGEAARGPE

Row | Compound | Ki (Galanin receptor type 2) | Ki (Galanin receptor type 3)
1 | CC(C)C[C@H](NC(=O)[C@H](CC(C)C)NC(=O)[C@@H](Cc1c[nH]c2ccccc12)NC(=O)[C@H](Cc1ccccc1)NC(=O)[C@@H](Cc1c[nH]c2ccccc12)NC(=O)[C@H](CCC(N)=O)NC(=O)[C@H](CCC(N)=O)NC(=O)[C@@H]1CCCN1C(=O)[C@H](CCCCN)NC(=O)[C@@H]1CCCN1C(=O)[C@@H](CCCN=C(N)N)NC(=O)[C@@H]1CCCN1C(=O)CNC(=O)[C@H](CC(C)C)NC(=O)[C@H](CC(C)C)NC(=O)[C@H](Cc1ccc(O)cc1)NC(=O)CNC(=O)[C@H](C)NC(=O)[C@H](CO)NC(=O)[C@H](CC(N)=O)NC(=O)[C@H](CC(C)C)NC(=O)[C@@H](NC(=O)[C@H](Cc1c[nH]c2ccccc12)NC(=O)CN)[C@@H](C)O)C(N)=O [Gal(1-13)-Std I] (H-GWTLNSAGYLLGP[dR]PKPQQ[dW]F[dW]LL-NH2) | 0.63 nM | –
2 | CC[C@H](C)[C@H](NC(=O)[C@H](C)NC(=O)[C@H](Cc1c[nH]cn1)NC(=O)[C@@H]1CCCN1C(=O)CNC(=O)[C@H](CC(C)C)NC(=O)[C@H](CC(C)C)NC(=O)[C@H](Cc1ccc(O)cc1)NC(=O)CNC(=O)[C@H](C)NC(=O)[C@H](CO)NC(=O)[C@H](CC(N)=O)NC(=O)[C@H](CC(C)C)NC(=O)[C@@H](NC(=O)[C@@H](N)Cc1c[nH]c2ccccc12)[C@@H](C)O)C(=O)N[C@@H](CC(=O)O)C(=O)N[C@@H](CC(N)=O)C(=O)N[C@@H](Cc1c[nH]cn1)C(=O)N[C@@H](CCCNC(=N)N)C(=O)N[C@@H](CO)C(=O)N[C@@H](Cc1ccccc1)C(=O)N[C@@H](CO)C(=O)N[C@@H](CC(=O)O)C(=O)N[C@@H](CCCCN)C(=O)N[C@@H](Cc1c[nH]cn1)C(=O)NCC(=O)N[C@@H](CC(C)C)C(=O)N[C@H](C(N)=O)[C@@H](C)O [Galanin Porcine 2-29] | 2.88 nM | 60.3 nM
3 | CC[C@H](C)[C@H](NC(=O)[C@H](C)NC(=O)[C@H](Cc1cnc[nH]1)NC(=O)[C@@H]1CCCN1C(=O)CNC(=O)[C@H](CC(C)C)NC(=O)[C@H](CC(C)C)NC(=O)[C@H](Cc1ccc(O)cc1)NC(=O)CNC(=O)[C@H](C)NC(=O)[C@H](CO)NC(=O)[C@H](CC(N)=O)NC(=O)[C@H](CC(C)C)NC(=O)[C@@H](NC(=O)[C@H](Cc1c[nH]c2ccccc12)NC(=O)CN)[C@@H](C)O)C(=O)N[C@@H](CC(=O)O)C(=O)N[C@@H](CC(N)=O)C(=O)N[C@@H](Cc1cnc[nH]1)C(N)=O [Galanin rat] | 1.62 nM | –
4 | H-GWTLNSAGYLLGPPPALALA-NH2 [M40] | 4.07 nM | –

Continued by falling Ki (Galanin receptor type 2), values first:

Row | Ki (Galanin receptor type 2) | Ki (Galanin receptor type 3) | Compound
5 | 1000 nM | – | CC[C@H](C)[C@H](NC(=O)[C@H](C)NC(=O)[C@H](Cc1c[nH]cn1)NC(=O)[C@@H]1CCCN1C(=O)CNC(=O)[C@H](CC(C)C)NC(=O)[C@H](CC(C)C)NC(=O)[C@H](Cc1ccc(O)cc1)NC(=O)CNC(=O)[C@H](C)NC(=O)[C@H](CO)NC(=O)[C@H](CC(N)=O)NC(=O)[C@H](CC(C)C)NC(=O)[C@@H](N)[C@@H](C)O)C(=O)N[C@@H](CC(=O)O)C(=O)N[C@@H](CC(N)=O)C(=O)N[C@@H](Cc1c[nH]cn1)C(=O)N[C@@H](CCCNC(=N)N)C(=O)N[C@@H](CO)C(=O)N[C@@H](Cc1ccccc1)C(=O)N[C@@H](Cc1c[nH]cn1)C(=O)N[C@@H](CC(=O)O)C(=O)N[C@@H](CCCCN)C(=O)N[C@@H](Cc1ccc(O)cc1)C(=O)NCC(=O)N[C@@H](CC(C)C)C(=O)N[C@@H](C)C(N)=O [Galanin (3-29), porcine]
6 | 1.95 nM | – | CC(C)C[C@H](NC(=O)[C@H](CC(C)C)NC(=O)[C@H](Cc1ccc(O)cc1)NC(=O)CNC(=O)[C@H](C)NC(=O)[C@H](CO)NC(=O)[C@H](CC(N)=O)NC(=O)[C@H](CC(C)C)NC(=O)[C@@H](NC(=O)[C@H](Cc1c[nH]c2ccccc12)NC(=O)CN)[C@@H](C)O)C(=O)NCC(=O)N1CCC[C@H]1C(=O)N1CCC[C@H]1C(=O)N1CCC[C@H]1C(=O)NCC(=O)N[C@@H](Cc1ccccc1)C(=O)N[C@@H](CO)C(=O)N1CCC[C@H]1C(=O)N[C@@H](Cc1ccccc1)C(=O)N[C@@H](CCCN=C(N)N)C(N)=O
7 | 1.07 nM | – | COc1ccccc1N(CCOc1ccc(C)cc1)C(=O)CN1CCCCC1 [CAS_3043476]
